As a reminder, the IC50 is the concentration that inhibits the measured activity by half.

Where a name gives a salt, the structure may show the parent alone.

T1 sequence (O75762 whole entry): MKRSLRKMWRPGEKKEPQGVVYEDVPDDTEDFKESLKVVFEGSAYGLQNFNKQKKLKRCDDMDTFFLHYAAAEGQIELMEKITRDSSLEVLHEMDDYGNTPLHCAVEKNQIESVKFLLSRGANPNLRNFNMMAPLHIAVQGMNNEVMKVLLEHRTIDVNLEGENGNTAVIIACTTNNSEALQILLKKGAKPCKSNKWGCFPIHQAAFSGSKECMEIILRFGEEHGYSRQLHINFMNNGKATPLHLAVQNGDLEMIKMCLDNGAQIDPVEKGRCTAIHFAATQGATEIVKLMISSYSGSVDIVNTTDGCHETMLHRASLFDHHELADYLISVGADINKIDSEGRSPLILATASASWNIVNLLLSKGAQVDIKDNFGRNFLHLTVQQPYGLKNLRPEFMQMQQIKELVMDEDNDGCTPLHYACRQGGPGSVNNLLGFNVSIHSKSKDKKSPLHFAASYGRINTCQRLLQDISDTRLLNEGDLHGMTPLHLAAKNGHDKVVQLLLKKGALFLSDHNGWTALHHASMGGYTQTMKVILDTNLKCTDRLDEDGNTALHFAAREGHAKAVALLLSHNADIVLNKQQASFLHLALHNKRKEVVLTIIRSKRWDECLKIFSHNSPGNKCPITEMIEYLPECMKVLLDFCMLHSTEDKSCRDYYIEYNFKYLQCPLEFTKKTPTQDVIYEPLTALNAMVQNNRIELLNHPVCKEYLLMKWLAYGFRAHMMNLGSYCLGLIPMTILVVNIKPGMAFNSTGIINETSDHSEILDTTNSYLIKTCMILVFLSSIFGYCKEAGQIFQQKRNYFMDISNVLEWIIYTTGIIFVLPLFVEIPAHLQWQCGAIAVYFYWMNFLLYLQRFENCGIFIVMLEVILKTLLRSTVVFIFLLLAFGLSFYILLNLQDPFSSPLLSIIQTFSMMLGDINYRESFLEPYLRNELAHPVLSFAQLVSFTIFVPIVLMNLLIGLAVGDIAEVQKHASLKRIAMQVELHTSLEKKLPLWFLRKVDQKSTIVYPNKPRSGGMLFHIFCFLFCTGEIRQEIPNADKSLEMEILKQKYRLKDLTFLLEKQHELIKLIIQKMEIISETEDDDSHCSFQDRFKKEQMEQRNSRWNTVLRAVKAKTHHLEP

The assay concerns the target T1, hTRPA1 (Homo sapiens, UniProt O75762).
T1 construct: host or cells: CHO-K1 Tet-On, Clone 20 (Chinese Hamster Ovary cells, inducible expression)
The assay can be described thus: IC50 determination, dose response calcium flux (FLIPR) assay, ChanTest hTRPA1-CHO stably transfected cell line. Type of assay: cell-based. As to conditions: CHO-K1 Tet-On hTRPA1 cells, 30' preincubation, agonist cinnamaldehyde final 100 uM. On the procedure:
IC50 Determination of Exemplified Compounds Dose Response Assay: ChanTest hTRPA1-CHO Stably Transfected Cell Line
CHO-K1 Tet-On_HOMSA_TRPA1_Clone—20
Growth Media for CHO-K1 Tet-On_HOMSA_TRPA1_Clone—20 • Ham's F-12 with 10% tetracycline-free FBS • 1× penicillin-streptomycin • 1× glutamax • 0.01 mg/ml Blasticidin • 0.40 mg/ml Zeocin • The cell line doubling rate was ˜15 hours. […] Experiments were run at 24 hours post induction.
Plating Conditions CHOK1/TRPA1 Cells: • Harvested cells with 0.025% trypsin/EDTA. • Resuspended cells in growth media without selection antibiotics. • Measured cell density and diluted to 2.4×10^5 cells/ml in media containing 1 ug/ml Doxycycline Plate 25 ul/well into 384 well black/clear tissue culture-treated plates. • Incubated overnight at 37° C.
Reagents: • Replacement Buffer: Hank's Balanced Salt Solution, 20 mM HEPES along with 0.005% BSA and 2× Probenecid • Dye Loading Buffer: Cal-3 NW Calcium dye was prepared by dissolving the contents of one vial with […] Hank's Balanced Salt Solution containing 20 mM HEPES. • Control compounds for CHOK1/TRPA1 cells: AP-18, stock 10 mM, prepare 3.5× compound dilution in a Compound Buffer (HBSS/20 mM HEPES/0.005% BSA)—final concentration 10 uM.
Preparation of Cinnamaldehyde (Agonist Addition):
• Specific gravity=1.046 gm/cc • 1.32 gm/1.046 gm/cc=1.26 ml of stock • Add 1.74 ml DMSO=3.3 M stock • Working solution 4.5× (final 100 uM in Compound Buffer: HBSS/20 mM HEPES/0.005% BSA)
Compounds dilutions were prepared from 5 or 10 mM stock (100% DMSO): • Adjustments of volumes and concentrations were made at time of titration to reflect desired final assay concentrations. • Compounds were tested at either 20 μM three folds dilution 11 steps out or 30 μM two folds dilution 11 steps out. • 3 μl of diluted compound were transferred into Weidmann 384-well plate in duplicates side-by-side.
Compound plates were resuspended with 100 ul of HBSS/20 mM HEPES/0.005% BSA buffer (Compound Buffer):
Growth media was removed from the cell plates (20 ul) and 20 ul of the Replacement Buffer was added followed by addition of 25 ul of diluted dye. All three steps were performed using a Plate Washer BioTek 407. The plates were then incubated for 30′ at RT.
After incubation, both the cell and compound plates were brought to the FLIPR and 20 ul of the diluted compounds/antagonist/bk were transferred to the cell plates by the FLIPR. Plates were then incubated for 30′ at room temperature. After 30′ incubation, plates were returned to the FLIPR and 20 ul of 4.5× Cinnamaldehyde was added to the cell plates. During the compound addition as well as agonist addition, fluorescence readings were taken simultaneously from all 384 wells of the cell plate every 1.5 seconds. Five readings were taken to establish a stable baseline, then 20 ul of sample was rapidly (30 ul/sec) and simultaneously added to each well of the cell plate. The fluorescence was continuously monitored before, during and after sample/agonist addition for a total elapsed time of 100 seconds (compound addition) and 120 seconds (agonist addition). Responses (increase in peak fluorescence) in each well following agonist addition was determined. The initial fluorescence reading from each well, prior to ligand stimulation, was used a zero baseline value for the data from that well.
A general note: Calcium assays in cells follow changes in intracellular calcium, usually with a dye or a luminescent sensor.
`O=C(Nc1ccc(Cl)cc1)O[C@@H](CN1CCCC(Oc2cccc(OC(F)(F)F)c2)C1)C(F)(F)F` (stereo partly drawn) [Example 50, (4-Chlorophenyl)-carbamic acid (S)-2,2,2-trifluoro-1-[3-(3-trifluoromethoxyphenoxyl)piperidin-1-ylmethyl]-ethyl ester hydrochloride]: the IC50 was 55.1 nM. Turning to `O=C(Nc1ccc(Cl)cc1)O[C@@H](CN1CCCC(COc2ccc(F)cc2)C1)C(F)(F)F` (stereo partly drawn) [Example 51, (4-Chlorophenyl)-carbamic acid (S)-2,2,2-trifluoro-1-[3-(4-fluorophenoxymethyl)-piperidin-1-ylmethyl]-ethyl ester hydrochloride], the IC50 was found to be 178 nM. As for `O=C(Nc1ccc(Cl)cc1)O[C@@H](CN1CCC[C@H](Oc2ccc(Cl)cc2)C1)C(F)(F)F` [Example 52a, (4-Chlorophenyl)-carbamic acid (S)-1-[(S)-3-(4-chlorophenoxy)-piperidin-1-ylmethyl]-2,2,2-trifluoroethyl ester hydrochloride], the half-maximal inhibitory concentration (IC50) came out at 114 nM. Turning to `O=C(Nc1ccc(Cl)cc1)O[C@@H](CN1CCC[C@@H](Oc2ccc(Cl)cc2)C1)C(F)(F)F` [Example 52b, (4-Chlorophenyl)-carbamic acid (S)-1-[(R)-3-(4-chlorophenoxy)-piperidin-1-ylmethyl]-2,2,2-trifluoroethyl ester hydrochloride], the IC50 came to 961 nM. With `O=C(Nc1ccc(Cl)cc1)O[C@@H](CN1CCCC(c2ccccn2)C1)C(F)(F)F` (stereo partly drawn) [Example 53, (4-Chlorophenyl)-carbamic acid (S)-2,2,2-trifluoro-1-(3′,4′,5′,6′-tetrahydro-2′H-[2,3′]bipyridinyl-1′-ylmethyl)-ethyl ester hydrochloride], the IC50 is 1920 nM.

With `N#Cc1ccnc(OC2CCCN(C[C@H](OC(=O)Nc3ccc(Cl)cc3)C(F)(F)F)C2)c1` (stereo partly drawn) [Example 54, (4-Chlorophenyl)-carbamic acid (S)-1-[3-(4-cyanopyridin-2-yloxy)-piperidin-1-ylmethyl]-2,2,2-trifluoroethyl ester hydrochloride], the 50% inhibitory concentration (IC50) is 596 nM. The value for `O=C(Nc1ccc(Cl)cc1)O[C@@H](CN1CCCC(OCc2cccnc2)C1)C(F)(F)F` (stereo partly drawn) [Example 55, (4-Chlorophenyl)-carbamic acid (S)-2,2,2-trifluoro-1-[3-(pyridin-3-ylmethoxy)-piperidin-1-ylmethyl]-ethyl ester hydrochloride] was 803 nM. `O=C(Nc1ccc(Cl)cc1)O[C@@H](CN1CCCC(c2cccc(C(F)(F)F)n2)C1)C(F)(F)F` (stereo partly drawn) [Example 56, (4-Chlorophenyl)-carbamic acid (S)-2,2,2-trifluoro-1-(6-trifluoromethyl-3′,4′,5′,6′-tetrahydro-2′H-[2,3′]bipyridinyl-1′-ylmethyl)-ethyl ester hydrochloride]: the IC50 is 246 nM. In the case of `O=C(Nc1ccc(Cl)cc1)O[C@@H](CN1CCCC(c2ccc(C(F)(F)F)nc2)C1)C(F)(F)F` (stereo partly drawn) [Example 57, (4-Chlorophenyl)-carbamic acid (S)-2,2,2-trifluoro-1-(6′-trifluoromethyl-3,4,5,6-tetrahydro-2H-[3,3′]bipyridinyl-1-ylmethyl)-ethyl ester hydrochloride], the concentration for half-maximal inhibition (IC50) was found to be 342 nM. Take `O=C(Nc1ccc(Cl)cn1)O[C@@H](CN1CCC[C@H](c2cccc(C(F)(F)F)c2)C1)C(F)(F)F` [Example 58, (5-Chloropyridin-2-yl)-carbamic acid (S)-2,2,2-trifluoro-1-[(R)-3-(3-trifluoromethyl-phenyl)-piperidin-1-ylmethyl]-ethyl ester hydrochloride]: the IC50 was 174 nM.

As for `O=C(Nc1ccc(Cl)cn1)O[C@@H](CN1CCCC(c2cccc(C(F)(F)F)c2)C1)C(F)(F)F` (stereo partly drawn) [Example 59, (5-Chloropyridin-2-yl)-carbamic acid (S)-2,2,2-trifluoro-1-[3-(3-trifluoromethylphenyl)-piperidin-1-ylmethyl]-ethyl ester hydrochloride], the IC50 was found to be 270 nM.

Turning to `COc1cccc(C2CCCN(C[C@H](OC(=O)Nc3ccc(Br)cc3)C(F)(F)F)C2)c1` (stereo partly drawn) [Example 60, (4-Bromophenyl)-carbamic acid (S)-2,2,2-trifluoro-1-[3-(3-methoxyphenyl)-piperidin-1-ylmethyl]-ethyl ester hydrochloride], the IC50 was found to be 365 nM. For the molecule `COc1cccc(C2CCCN(C[C@H](OC(=O)Nc3ccc(F)cc3)C(F)(F)F)C2)c1` (stereo partly drawn) [Example 61, (4-Fluorophenyl)-carbamic acid (S)-2,2,2-trifluoro-1-[3-(3-methoxyphenyl)-piperidin-1-ylmethyl]-ethyl ester hydrochloride], the IC50 amounted to 273 nM.

In the case of `CS(=O)(=O)c1cccc(C2CCCN(C[C@H](OC(=O)Nc3ccc(Cl)cc3)C(F)(F)F)C2)c1` (stereo partly drawn) [Example 62, (4-Chlorophenyl)-carbamic acid (S)-2,2,2-trifluoro-1-[3-(3-methanesulfonylphenyl)-piperidin-1-ylmethyl]-ethyl ester hydrochloride], the IC50 was 1160 nM. As to `CS(=O)(=O)c1cccc(C2CCCN(C[C@H](OC(=O)Nc3ccc(F)cc3)C(F)(F)F)C2)c1` (stereo partly drawn) [Example 63, (4-Fluorophenyl)-carbamic acid (S)-2,2,2-trifluoro-1-[3-(3-methanesulfonylphenyl)-piperidin-1-ylmethyl]-ethyl ester hydrochloride], the IC50 turned out to be 2910 nM.

Regarding `O=C(Nc1ccc(Cl)cc1)O[C@@H](CN1CCC(Cc2ccccc2)C1)C(F)(F)F` (stereo partly drawn) [Example 64, (4-Chlorophenyl)-carbamic acid (S)-1-(3-benzylpyrrolidin-1-ylmethyl)-2,2,2-trifluoro-ethyl ester], the IC50 was determined as 4990 nM. As for `O=C(Nc1ccc(F)c(Cl)c1)O[C@@H](CN1CCCC(c2cccc(C(F)(F)F)c2)C1)C(F)(F)F` (stereo partly drawn) [Example 65, (3-Chloro-4-fluoro-phenyl)-carbamic acid (S)-2,2,2-trifluoro-1-[3-(3-trifluoromethyl-phenyl)-piperidin-1-ylmethyl]-ethyl ester], the figure is 257 nM; as for `O=C(Nc1ccc(Cl)c(Cl)c1)O[C@@H](CN1CCCC(c2cccc(C(F)(F)F)c2)C1)C(F)(F)F` (stereo partly drawn) [Example 66, (3,4-Dichlorophenyl)-carbamic acid(S)-2,2,2-trifluoro-1-[3-(3-trifluoromethyl-phenyl)piperidin-1-ylmethyl]-ethyl ester], 200 nM.

Take `O=C(Nc1ccc(F)c(F)c1)O[C@@H](CN1CCCC(c2cccc(C(F)(F)F)c2)C1)C(F)(F)F` (stereo partly drawn) [Example 67, (3,4-Difluorophenyl)-carbamic acid (S)-2,2,2-trifluoro-1-[3-(3-trifluoromethylphenyl)piperidin-1-ylmethyl]-ethyl ester]: the IC50 came to 177 nM. With `O=C(Nc1ccc(Cl)nc1)O[C@@H](CN1CCCC(c2cccc(C(F)(F)F)c2)C1)C(F)(F)F` (stereo partly drawn) [Example 68, (6-Chloropyridin-3-yl)-carbamic acid (S)-2,2,2-trifluoro-1-[3-(3-trifluoromethylphenyl)-piperidin-1-ylmethyl]-ethyl ester], the half-maximal inhibitory concentration (IC50) is 192 nM.

The record behind these values is patent US20150218141A1, “SUBSTITUTED CARBAMATE COMPOUNDS” (HOFFMANN-LA ROCHE INC, priority 2012, published 2015).
